Like-named read-outs stand apart in the source and are kept apart here.
What was measured:
[1] = test system: RVFV (rRVFVΔNSs::Katushka); experiment: microbe, parasite or virus in culture; format: cell-based, Rift Valley fever virus
[2] = test system: HIV-1; experiment: HIV-1 infection of TZM-bl cells, firefly luciferase under HIV-1 LTR promoter; format: cell-based, Human immunodeficiency virus 1; settings: for validation of anti-HIV-1 hit: validation experiment; for EC50: Human immunodeficiency virus 1, TZM-bl, read-out: EC50 other
[3] = test system: CHIKV-2SG-NanoLuc; experiment: microbe, parasite or virus in culture; format: cell-based, Chikungunya virus
[4] = test system: RRV-2SG-NanoLuc; experiment: microbe, parasite or virus in culture; format: cell-based, Ross River virus
[5] = test system: CHIKV-2SG-NanoLuc; experiment: microbe, parasite or virus in culture; format: cell-based, Chikungunya virus; remark: listed apart in the source
[6] = in vitro; settings: human
[7] = test system: RRV-2SG-NanoLuc; experiment: microbe, parasite or virus in culture; format: cell-based, Ross River virus; remark: listed apart in the source
[8] = in vitro; settings: human; remark: listed apart in the source
[9] = test system: EV1; experiment: microbe, parasite or virus in culture; format: cell-based, Echovirus 1
[10] = test system: EV1; experiment: microbe, parasite or virus in culture; format: cell-based, Echovirus 1; remark: listed apart in the source
[11] = in vitro; settings: human; remark: listed apart in the source
[12] = test system: A549 cells
[13] = Rift Valley fever virus, A549, read-out: EC50 other

Question: For `CN(C)c1ccc(O)c2c1C[C@H]1C[C@H]3[C@H](N(C)C)C(O)=C(C(N)=O)C(=O)[C@@]3(O)C(O)=C1C2=O` [Minocycline], which “SI (minimal selectivity index, CC50/EC50)” value [1] is on record?
Answer: The value was >11.

Question: What about the “screen hit against RVFV” value [1] of the same compound?
Answer: The value was “identified”.

Question: What about the EC50 [1, 13] of the same compound?
Answer: Its EC50 is 9.52 µM.

Question: What about the “primary screen hit against HIV-1” value ([2]; HIV-1, TZM-bl cells) of the same compound?
Answer: Its value is “anti-HIV-1 agents”.

Question: And the “validation of anti-HIV-1 hit” value ([2]; HIV-1, TZM-bl cells)?
Answer: The value was “confirmed”.

Question: And the EC50 [2]?
Answer: The EC50 was 6.84 µM.

Question: For `COc1c(C)c2c(c(O)c1C/C=C(\C)CCC(=O)O)C(=O)OC2` [Mycophenolic acid], which “SI (minimal selectivity index, CC50/EC50)” value ([3]; CHIKV, RPE cells) is on record?
Answer: Its value is >333.

Question: What about the EC50 ([3]; Chikungunya virus, RPE, read-out: EC50 CTxG) of the same compound?
Answer: The EC50 was 0.08 µM.

Question: And the “SI (minimal selectivity index, CC50/EC50)” value [4]?
Answer: The value was >9.

Question: What about the EC50 ([4]; Ross River virus, RPE, read-out: EC50 CTG) of the same compound?
Answer: Its EC50 is 3.19 µM.

Question: What about the “antiviral activity in repeat experiments” value [5] of the same compound?
Answer: Its value is “confirmed antiviral activity”.

Question: And the EC50 ([5]; Chikungunya virus, RPE, read-out: EC50 other)?
Answer: Its EC50 is 0.09 µM.

Question: And the CC50 ([6]; CC50 CTG)?
Answer: Its CC50 is > 30 µM.

Question: And the CC50 ([6]; CC50 CTxG)?
Answer: Its CC50 is > 30 µM.

Question: And the “antiviral activity in repeat experiments” value [7]?
Answer: Its value is “confirmed antiviral activity”.

Question: And the EC50 ([7]; Ross River virus, RPE, read-out: EC50 other)?
Answer: The EC50 was 0.86 µM.

Question: Which results are given for `CN[C@H](CC(C)C)C(=O)N[C@H]1C(=O)N[C@@H](CC(N)=O)C(=O)N[C@H]2C(=O)N[C@H]3C(=O)N[C@H](C(=O)N[C@H](C(=O)O)c4cc(O)cc(O)c4-c4cc3ccc4O)[C@H](O[C@H]3C[C@](C)(N)[C@@H](O)[C@H](C)O3)c3ccc(c(Cl)c3)Oc3cc2cc(c3O[C@@H]2O[C@H](CO)[C@@H](O)[C@H](O)[C@H]2O[C@H]2C[C@](C)(NCc3ccc(-c4ccc(Cl)cc4)cc3)[C@@H](O)[C@H](C)O2)Oc2ccc(cc2Cl)[C@H]1O` [Oritavancin]?
Answer: screen hit against RVFV [1]: identified; EC50 [1, 13]: 4.49 µM; CC50 [8]: 75.8 µM

Question: For `Cc1ccc2c(c1)c1c3n2CCNC3CCC1` (centres unmarked) [Pirlindole], which “SI (minimal selectivity index, CC50/EC50)” value [9] is on record?
Answer: Its value is 11.

Question: And the EC50 ([9]; Enterovirus B, RPE, read-out: EC50 CTxG)?
Answer: Its EC50 is 2.71 µM.

Question: And the “antiviral activity in repeat experiments” value [10]?
Answer: Its value is “confirmed antiviral activity”.

Question: What about the EC50 ([10]; Enterovirus B, read-out: EC50 other) of the same compound?
Answer: The EC50 was 8.92 µM.

Question: And the CC50 ([6]; CC50 CTG)?
Answer: Its CC50 is 28.5 µM.

Question: And the CC50 ([6]; CC50 CTxG)?
Answer: Its CC50 is > 30 µM.

Question: For `CO[C@H]1C[C@@H]2CC[C@@H](C)[C@@](O)(O2)C(=O)C(=O)N2CCCC[C@H]2C(=O)O[C@H]([C@H](C)C[C@@H]2CC[C@@H](O)[C@H](OC)C2)CC(=O)[C@H](C)/C=C(\C)[C@@H](O)[C@@H](OC)C(=O)[C@H](C)C[C@H](C)/C=C/C=C/C=C/1C` [Rapamycin], which “SI (minimal selectivity index, CC50/EC50)” value ([2]; HIV-1, TZM-bl cells) is on record?
Answer: Its value is >1.

Question: And the “primary screen hit against HIV-1” value ([2]; HIV-1, TZM-bl cells)?
Answer: Its value is “anti-HIV-1 agents”.

Question: And the “validation of anti-HIV-1 hit” value ([2]; HIV-1, TZM-bl cells)?
Answer: The value was “confirmed”.

Question: What about the EC50 [2] of the same compound?
Answer: Its EC50 is 18.9 µM.

Question: What about the CC50 [11] of the same compound?
Answer: The CC50 was > 30 µM.

Question: With `CC(C)c1nc(CN(C)C(=O)N[C@H](C(=O)N[C@@H](Cc2ccccc2)C[C@H](O)[C@H](Cc2ccccc2)NC(=O)OCc2cncs2)C(C)C)cs1` [Ritonavir] as the compound, how does the “screen hit against RVFV” value [1] read?
Answer: The value was “identified”.

Question: And the EC50 [1, 13]?
Answer: The EC50 was 26.8 µM.

Question: Which “screen hit against RVFV” value [1] does the source give for `C[C@H]1c2cccc(O)c2C(=O)C2=C(O)[C@]3(O)C(=O)C(C(N)=O)=C(O)[C@@H](N(C)C)[C@@H]3[C@@H](O)[C@@H]21` [doxycycline] here?
Answer: The value was “identified”.

Question: Which “screen hit against RVFV” value [1] does the source give for `COc1cc2ncnc(Nc3ccc(F)c(Cl)c3)c2cc1OCCCN1CCOCC1` [gefitinib] here?
Answer: Its value is “identified”.

Question: For `CC[C@@]1(O)C(=O)OCc2c1cc1n(c2=O)Cc2cc3c(CN(C)C)c(O)ccc3nc2-1` [topotecan], which “screen hit against RVFV” value [1] is on record?
Answer: Its value is “identified”.

Question: Which CC50 [12] does the source give for Bortezamib here?
Answer: Its CC50 is > 100 µM.

Question: And the “screen hit against RVFV” value [1]?
Answer: Its value is “identified”.

Question: And the EC50 ([1]; read-out: EC50 other)?
Answer: The EC50 was < 0.39 µM.

From PMC7113852 (Antiviral Research, 2018)
